The record followed here is PubChem BioAssay (NCI).

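96-well plates; 48 h exposure; 5 concentrations. Endpoints by linear interpolation between flanking doses. Not reached: highest tested concentration assigned. TGI marks complete inhibition of growth.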

Some test systems named below: A549 NSCLC; BT-549 breast; CCRF-CEM leukemia; HCC-2998 colon; HCT-116 colon; K-562 leukemia; MDA-MB-435; NCI-H226 lung; OVCAR-4 ovarian; SF-268 CNS; SF-539 CNS; SK-MEL-28 melanoma; SK-OV-3 ovarian; SN12C renal; SW-620 colon; T-47D breast; UACC-257 melanoma; M14 melanoma; U251 CNS; UO-31 renal.
What all share (test): growth of human tumour cells (NCI), 48 h

On to `COC(=O)C1(Cc2ccccc2)Cc2cc3c(cc2C1O)CCC3` (stereo not given), for which the TGI with A549 NSCLC turned out to be 59 µM; in the assay on BT-549 breast it was 31.9 µM; with CCRF-CEM leukemia, 60.1 µM; in the assay on HCC-2998 colon, 60.6 µM; in the assay on HCT-116 colon it was 31.8 µM; in the assay on K-562 leukemia, 67.6 µM. In addition, the TGI in the assay on MDA-MB-435 was 32.2 µM; in the assay with NCI-H226 lung, 41.3 µM; in the assay with OVCAR-4 ovarian, 41.7 µM; in the assay with SF-268 CNS, over 100 µM; in the assay on SF-539 CNS, 36.7 µM; in the assay with SK-MEL-28 melanoma, 32.4 µM. The TGI in the assay on SK-OV-3 ovarian was found to be 36 µM; with SN12C renal it was 33.3 µM; in the assay on SW-620 colon, 30 µM; in the assay on T-47D breast it was 62.9 µM; with UACC-257 melanoma it was 42.9 µM.

Take `NC1=Nc2ccccc2Sc2cccc(F)c21`: the TGI in the assay on A549 NSCLC is over 100 µM; in the assay on BT-549 breast it was over 100 µM; in the assay with CCRF-CEM leukemia it was 56.9 µM; in the assay on HCC-2998 colon, over 100 µM; with HCT-116 colon it was over 100 µM; in the assay with K-562 leukemia, over 100 µM. Besides, the TGI with M14 melanoma, in the assay with MDA-MB-435, in the assay with NCI-H226 lung, in the assay on OVCAR-4 ovarian, in the assay with SF-268 CNS and with SF-539 CNS was over 100 µM throughout. In addition, the TGI in the assay with SK-MEL-28 melanoma, in the assay on SK-OV-3 ovarian, in the assay on SN12C renal, in the assay with SW-620 colon, with T-47D breast and with U251 CNS was over 100 µM in each case. The TGI in the assay with UACC-257 melanoma and in the assay on UO-31 renal was over 100 µM in each case.

For the compound `Nc1ccn(C2CCC(COP(=O)(O)OCC(O)COP(=O)(O)OCC3OC(n4cc(F)c(=O)[nH]c4=O)CC3O)O2)c(=O)n1` (stereo not given), the TGI with A549 NSCLC, with BT-549 breast, in the assay with CCRF-CEM leukemia, with HCC-2998 colon, with HCT-116 colon and with K-562 leukemia was over 100 µM in each case. Also, the TGI in the assay with M14 melanoma, in the assay on MDA-MB-435, in the assay on NCI-H226 lung, with OVCAR-4 ovarian, with SF-268 CNS and in the assay with SF-539 CNS was over 100 µM throughout. The TGI with SK-MEL-28 melanoma, with SK-OV-3 ovarian, in the assay with SN12C renal, in the assay on SW-620 colon, in the assay on T-47D breast and in the assay on U251 CNS was over 100 µM in each case. In addition, the TGI in the assay on UACC-257 melanoma and in the assay on UO-31 renal was over 100 µM in each case.

Take `CCOC(=O)c1nc2cc(Cl)ccc2[nH]c1=O`: the TGI with A549 NSCLC, in the assay with BT-549 breast, with CCRF-CEM leukemia, in the assay with HCC-2998 colon, in the assay on HCT-116 colon and with K-562 leukemia was over 100 µM in each case. Besides, the TGI in the assay with M14 melanoma, in the assay on MDA-MB-435, in the assay on NCI-H226 lung, in the assay on OVCAR-4 ovarian, in the assay on SF-268 CNS and with SF-539 CNS was over 100 µM each time. Besides, the TGI in the assay with SK-MEL-28 melanoma, in the assay with SK-OV-3 ovarian, in the assay with SN12C renal, in the assay with SW-620 colon, in the assay on T-47D breast and in the assay with U251 CNS was over 100 µM each time. In addition, the TGI in the assay on UACC-257 melanoma and in the assay on UO-31 renal was over 100 µM in each case.

As to `NC(=S)N1N=C2c3ccccc3CCC[C@H]2[C@@H]1c1ccccc1`, the TGI in the assay on A549 NSCLC is over 53.7 µM; with BT-549 breast, 19.7 µM; with CCRF-CEM leukemia, 24.3 µM; with HCC-2998 colon it was 14 µM; with HCT-116 colon it was 12.7 µM; in the assay with K-562 leukemia it was over 37.9 µM. Further, the TGI turned out to be 10.1 µM in the assay on M14 melanoma; 0.326 µM in the assay with MDA-MB-435; 11.1 µM in the assay on NCI-H226 lung; 23.2 µM in the assay with OVCAR-4 ovarian; 39.4 µM in the assay with SF-268 CNS; 2.61 µM with SF-539 CNS. Moreover, the TGI with SK-MEL-28 melanoma was 32.6 µM; in the assay with SK-OV-3 ovarian, 2.77 µM; with SN12C renal, 19.7 µM; in the assay on SW-620 colon, 15.3 µM; in the assay on T-47D breast it was 29.1 µM; in the assay with U251 CNS, 17.7 µM. For the same compound, the TGI in the assay on UACC-257 melanoma was 25.7 µM; in the assay on UO-31 renal, 15.8 µM.

In the case of `Cn1cc2c3ccccc3nc-2c2ccccc21`, the TGI in the assay on A549 NSCLC turned out to be 5.65 µM; in the assay with BT-549 breast, 14.7 µM; in the assay with CCRF-CEM leukemia, 5.99 µM; with HCC-2998 colon, 3.04 µM; in the assay with HCT-116 colon, 3.2 µM; with K-562 leukemia, 9.65 µM. In addition, the TGI is 4.4 µM in the assay on M14 melanoma; 6.33 µM with MDA-MB-435; 5.25 µM in the assay with OVCAR-4 ovarian; 6.86 µM in the assay on SF-268 CNS; 3.66 µM with SF-539 CNS; 6.43 µM in the assay on SK-MEL-28 melanoma. The TGI stood at 9.3 µM in the assay on SK-OV-3 ovarian; 4.89 µM with SN12C renal; 3.89 µM with SW-620 colon; 5.87 µM in the assay with T-47D breast; 6.51 µM in the assay with U251 CNS; 5.85 µM with UACC-257 melanoma. In the assay with UO-31 renal, the TGI was 2.92 µM.

For the compound `C(=C/c1nnnn1-c1ccccc1)/Nc1ccccc1`, the TGI in the assay with A549 NSCLC is over 100 µM; in the assay on BT-549 breast, 53.9 µM; in the assay on CCRF-CEM leukemia, over 100 µM; with HCC-2998 colon, 97.7 µM; in the assay with HCT-116 colon, 95.7 µM; in the assay with K-562 leukemia it was over 100 µM. In addition, the TGI in the assay with M14 melanoma is 77.3 µM; with MDA-MB-435 it was 92.9 µM; in the assay on NCI-H226 lung it was 61.6 µM; with SF-268 CNS, over 100 µM; in the assay with SF-539 CNS it was 64.7 µM; in the assay on SK-MEL-28 melanoma, over 100 µM. Further, the TGI with SK-OV-3 ovarian, in the assay with SN12C renal, in the assay with SW-620 colon, with T-47D breast, in the assay with U251 CNS and in the assay with UACC-257 melanoma was over 100 µM each time. The compound also came in with a TGI in the assay on UO-31 renal of 65.9 µM.
